Laboratory results from patent publication US20230167073A1 (Teijin Pharma Limited, priority 2020, published 2023).

biological target: T1, Human TRPC6 (Homo sapiens, UniProt Q9Y210); assay: Evaluation of TRPC6 channel inhibitory activity (1), FLIPR Calcium 5 Assay Kit, OAG stimulation (Compound Nos. 1-1293); type: cell-based; details: Human TRPC6 stably-expressing cells, OAG 30 μM, FLIPR Calcium 5 Assay Kit; read-out: Inhibitory activity (pIC50 class) (converted)
T1 construct: expressed in transfected cells
T1 sequence (Q9Y210 1-931): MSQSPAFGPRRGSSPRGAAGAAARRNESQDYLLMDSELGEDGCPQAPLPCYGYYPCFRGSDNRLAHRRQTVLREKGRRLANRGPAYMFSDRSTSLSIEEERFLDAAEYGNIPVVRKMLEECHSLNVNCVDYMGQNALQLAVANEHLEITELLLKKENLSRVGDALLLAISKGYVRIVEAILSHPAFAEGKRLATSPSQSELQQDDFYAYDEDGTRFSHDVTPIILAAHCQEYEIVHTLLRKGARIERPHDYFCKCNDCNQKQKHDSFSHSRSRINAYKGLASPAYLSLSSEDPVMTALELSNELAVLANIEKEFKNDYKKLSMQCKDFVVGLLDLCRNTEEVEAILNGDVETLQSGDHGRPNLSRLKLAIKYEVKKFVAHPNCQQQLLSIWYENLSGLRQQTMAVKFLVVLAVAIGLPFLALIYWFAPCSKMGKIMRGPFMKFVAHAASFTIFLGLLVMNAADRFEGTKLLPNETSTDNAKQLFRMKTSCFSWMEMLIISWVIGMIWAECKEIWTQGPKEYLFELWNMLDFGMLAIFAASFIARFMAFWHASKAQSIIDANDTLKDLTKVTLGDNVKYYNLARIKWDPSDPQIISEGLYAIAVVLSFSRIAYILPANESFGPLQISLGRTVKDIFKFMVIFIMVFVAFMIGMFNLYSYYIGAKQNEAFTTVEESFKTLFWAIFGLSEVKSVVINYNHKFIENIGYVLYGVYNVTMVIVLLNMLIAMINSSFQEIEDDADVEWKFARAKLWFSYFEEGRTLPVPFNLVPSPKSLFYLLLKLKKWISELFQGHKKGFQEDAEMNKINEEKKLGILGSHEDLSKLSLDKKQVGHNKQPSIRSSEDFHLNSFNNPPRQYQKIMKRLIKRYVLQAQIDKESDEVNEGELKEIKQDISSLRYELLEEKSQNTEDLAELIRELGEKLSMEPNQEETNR
Outline: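 Stable human TRPC6 line; fluorescent Ca2+ dye loading, then 20 min compound exposure before 30 μM OAG trigger. Peak-minus-baseline signal converted to % inhibition against untreated and unstimulated wells; potency given as pIC50 band.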

| SMILES | IC50 [µM] |
| --- | --- |
| Cc1nc(Oc2cc(C#N)ccc2-c2ccc3c(c2)CC(N)C3=O)cc(N2CCOCC2)n1 (centres unmarked) [Compound 131, 4-(2-Amino-1-oxo-2,3-dihydroinden-5-yl)-3-(2-methyl-6-morpholin-4-ylpyrimidin-4-yl)oxybenzonitrile] | > 1 |
| Cc1nc(Oc2cc(C#N)ccc2-c2ccc3c(c2)CCC3N)cc(N2CCOCC2)n1 (centres unmarked) [Compound 132, 4-(1-amino-2,3-dihydro-1H-inden-5-yl)-3-(2-methyl-6-morpholin-4-ylpyrimidin-4-yl)oxybenzonitrile] | 0.01 to 1 |
| Cc1nc(Oc2cc(C#N)ccc2-c2ccc(C(CN)C(F)F)cc2)cc(N2CCOCC2)n1 (centres unmarked) [Compound 133, 4-[4-(3-amino-1,1-difluoropropan-2-yl)phenyl]-3-(2-methyl-6-morpholin-4-ylpyrimidin-4-yl)oxybenzonitrile] | < 0.01 |
| Cc1nc(Oc2cc(C#N)ccc2-c2ccc3c(c2)CC(N)C3O)cc(N2CCOCC2)n1 (centres unmarked) [Compound 134, 4-(2-amino-1-hydroxy-2,3-dihydro-1H-inden-5-yl)-3-(2-methyl-6-morpholin-4-ylpyrimidin-4-yl)oxybenzonitrile] | 0.01 to 1 |
| N#Cc1ccc(-n2ccc(CN)n2)c(Oc2cnnc(-c3ccccc3)c2)c1 [Compound 135, 4-[3-(aminomethyl)pyrazol-1-yl]-3-(6-phenylpyridazin-4-yl)oxybenzonitrile] | > 1 |
| N#Cc1ccc(-c2ccc(CCN)cc2)c(Oc2cnnc(C3CCCC3)c2)c1 [Compound 137, 4-[4-(2-aminoethyl)phenyl]-3-(6-cyclopentylpyridazin-4-yl)oxybenzonitrile] | < 0.01 |
| Cc1cc(Oc2cc(C#N)ccc2-c2ccc(CCN)cc2)cc(N2CCOCC2)n1 [Compound 138, 4-[4-(2-aminoethyl)phenyl]-3-(2-methyl-6-morpholin-4-ylpyridin-4-yl)oxybenzonitrile] | < 0.01 |
| N#Cc1ccc(-c2ccc(C(CN)C(F)F)cc2)c(Oc2cnnc(N3CCOCC3)c2)c1 (centres unmarked) [Compound 139, 4-[4-(3-amino-1,1-difluoropropan-2-yl)phenyl]-3-(6-morpholin-4 ylpyridazin-4-yl)oxybenzonitrile] | 0.01 to 1 |
| Cc1nc(Oc2cc(C#N)ccc2-n2cc(C(O)CN)cn2)cc(-c2ccc(F)cc2)n1 (centres unmarked) [Compound 140, 4-[4-(2-amino-1-hydroxyethyl)pyrazol-1-yl]-3-[6-(4-fluorophenyl)-2-methylpyrimidin-4-yl]oxybenzonitrile] | 0.01 to 1 |
| Cc1nc(Oc2cc(C#N)ccc2-n2cc(C(O)CN)cn2)cc(-c2cccc(F)c2)n1 (centres unmarked) [Compound 141, 4-[4-(2-amino-1-hydroxyethyl)pyrazol-1-yl]-3-[6-(3-fluorophenyl)-2-methylpyrimidin-4-yl]oxybenzonitrile] | 0.01 to 1 |
| Cc1ccc(-c2cc(Oc3cc(C#N)ccc3-n3cc(C(O)CN)cn3)nc(C)n2)cc1 (centres unmarked) [Compound 142, 4-[4-(2-amino-1-hydroxyethyl)pyrazol-1-yl]-3-[2-methyl-6-(4-methylphenyl)pyrimidin-4-yl]oxybenzonitrile] | 0.01 to 1 |
| Cc1nc(Oc2cc(C#N)ccc2-c2nc(C)c(CN(C)C)s2)cc(-c2ccccc2)n1 [Compound 143, 4-[5-[(dimethylamino)methyl]-4-methyl-1,3-thiazol-2-yl]-3-(2-methyl-6-phenylpyrimidin-4-yl)oxybenzonitrile] | > 1 |
| N#Cc1ccc(-c2ccc(CCN)cc2)c(Oc2cc(N3CCOCC3)cnn2)c1 [Compound 145, 4-[4-(2-aminoethyl)phenyl]-3-(5-morpholin-4-ylpyridazin-3-yl)oxybenzonitrile] | 0.01 to 1 |
| Cc1nc(Oc2cc(C#N)ccc2-n2cc(C(=O)CN)cn2)cc(-c2ccccc2)n1 [Compound 146, 4-[4-(2-aminoacetyl)pyrazol-1-yl]-3-(2-methyl-6-phenylpyrimidin-4-yl)oxybenzonitrile] | > 1 |
| Cc1nc(Oc2cc(C#N)ccc2-c2ccc(C(O)CN)c(F)c2)cc(N2CCOCC2)n1 (centres unmarked) [Compound 149, 4-[4-(2-Amino-1-hydroxyethyl)-3-fluorophenyl]-3-(2-methyl-6-morpholin-4-ylpyrimidin-4-yl)oxybenzonitrile] | < 0.01 |
| Cc1nc(Oc2cc(C#N)ccc2-c2ccc(C(O)CN)c(Cl)c2)cc(N2CCOCC2)n1 (centres unmarked) [Compound 150, 4-[4-(2-amino-1-hydroxyethyl)-3-chlorophenyl]-3-(2-methyl-6-morpholin-4-ylpyrimidin-4-yl)oxybenzonitrile] | < 0.01 |
| N#Cc1ccc(-n2cc(C(O)CN)cn2)c(Oc2cnnc(-c3ccccc3)c2)c1 (centres unmarked) [Compound 154, 4-[4-(2-amino-1-hydroxyethyl)pyrazol-1-yl]-3-(6-phenylpyridazin-4-yl)oxybenzonitrile] | 0.01 to 1 |
| COc1cc(-c2ccc(C#N)cc2Oc2cc(N3CCOCC3)nc(C)n2)ccc1C(O)CN (centres unmarked) [Compound 156, 4-[4-(2-amino-1-hydroxyethyl)-3-methoxyphenyl]-3-(2-methyl-6-morpholin-4-ylpyrimidin-4-yl)oxybenzonitrile] | 0.01 to 1 |

Now from value to compound:

| IC50 [µM] | SMILES |
| --- | --- |
| 0.01 to 1 | Cc1nc(Oc2cc(C#N)ccc2-n2cc(C(O)CN)cn2)cc(N2CCOCC2)n1 (centres unmarked) [Compound 136, 4-[4-(2-amino-1-hydroxyethyl)pyrazol-1-yl]-3-(2-methyl-6-morpholin-4-ylpyrimidin-4-yl)oxybenzonitrile] |
| 0.01 to 1 | Cc1nc(Oc2cc(C#N)ccc2-n2ccc(C(O)CN)n2)cc(N2CCOCC2)n1 (centres unmarked) [Compound 144, 4-[3-(2-amino-1-hydroxyethyl)pyrazol-1-yl]-3-(2-methyl-6-morpholin-4-ylpyrimidin-4-yl)oxybenzonitrile] |
| 0.01 to 1 | N#Cc1ccc(-c2ccc(CCN)nc2)c(Oc2cc(N3CCOCC3)nc(C(F)(F)F)n2)c1 [Compound 147, 4-[6-(2-aminoethyl)pyridin-3-yl]-3-[6-morpholin-4-yl-2-(trifluoromethyl)pyrimidin-4-yl]oxybenzonitrile] |
| 0.01 to 1 | N#Cc1ccc(-c2ccc(CCN)cn2)c(Oc2cc(N3CCOCC3)nc(C(F)(F)F)n2)c1 [Compound 148, 4-[5-(2-aminoethyl)pyridin-2-yl]-3-[6-morpholin-4-yl-2-(trifluoromethyl)pyrimidin-4-yl]oxybenzonitrile] |
| 0.01 to 1 | Cc1nc(Oc2cc(C#N)ccc2-c2ccc(C(O)CN)c(C(F)(F)F)c2)cc(N2CCOCC2)n1 (centres unmarked) [Compound 151, 4-[4-(2-amino-1-hydroxyethyl)-3-(trifluoromethyl)phenyl]-3-(2-methyl-6-morpholin-4-ylpyrimidin-4-yl)oxybenzonitrile] |
| 0.01 to 1 | Cc1nc(Oc2cc(C#N)ccc2-c2ccc(C(O)CN)c(O)c2)cc(N2CCOCC2)n1 (centres unmarked) [Compound 152, 4-[4-(2-amino-1-hydroxyethyl)-3-hydroxyphenyl]-3-(2-methyl-6-morpholin-4-ylpyrimidin-4-yl)oxybenzonitrile] |
| < 0.01 | Cc1nc(Oc2cc(C#N)ccc2-c2ccc(C(O)CN)c(F)c2F)cc(N2CCOCC2)n1 (centres unmarked) [Compound 153, 4-[4-(2-amino-1-hydroxyethyl)-2,3-difluorophenyl]-3-(2-methyl-6-morpholin-4-ylpyrimidin-4-yl)oxybenzonitrile] |
| 0.01 to 1 | N#Cc1ccc(-n2cc(C(O)CN)cn2)c(Oc2cc(N3CCOCC3)nc(C(F)(F)F)n2)c1 (centres unmarked) [Compound 155, 4-[4-(2-amino-1-hydroxyethyl)pyrazol-1-yl]-3-[6-morpholin-4-yl-2-(trifluoromethyl)pyrimidin-4-yl]oxybenzonitrile] |
